Experimental data taken from the METLIN SMRT retention time set (Domingo-Almenara et al. 2019).

Test: gradient 5% acetonitrile 3 min, to 50% in 2 min, to 85% in 15 min, held 3 min, 100 µL/min
Settings: column: Zorbax Extend-C18 2.1 x 50 mm; eluents: water / acetonitrile, 0.1% formic acid
Method in brief: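 Retention times come from adduct peaks that were picked computationally and then checked by hand. The standards, pure and pooled in mixtures of ~100 molecules, were run on a Zorbax Extend-C18 column (2.1 × 50 mm, 1.8 μm) at 100 μL/min with water and acetonitrile, each with 0.1% formic acid. Detection was by quadrupole time-of-flight mass spectrometry in positive and negative ionization mode, with a dead volume of 40 μL and a dwell volume of 900 μL.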

SMILES | RP-LC retention time
CS(=O)(=O)N1CCC(C(=O)N2CC3CC(C2)c2cccc(=O)n2C3)CC1 (centres undefined) | 528 s
CC(C)(C)C(=O)N1CCCC(c2nc(CCNC(=O)C3CC3)cs2)C1 (centres undefined) | 710 s
Cc1ccc(NC(=O)C2CCN(S(=O)(=O)c3cn(C(C)C)cn3)CC2)cc1C | 819 s
CCS(=O)(=O)Nc1ccc(C2(C(=O)NCc3cc(F)cc(F)c3)CCCCC2)cc1 | 972 s
COc1nc2ccccc2nc1N1CCCC(C(=O)NCc2ccccc2)C1 (centres undefined) | 1040 s
Cc1ccccc1S(=O)(=O)N1CC[C@@H]2CN(Cc3cccnc3)[C@@H]2C1 | 598 s
CCNC(=O)Nc1ccc2c(c1)CN(Cc1cn(C(C)C)c3ccc(OC)cc13)CCO2 | 726 s
COCCN(Cc1ccco1)C(=O)Cn1nc(Cc2cccnc2)c2ccccc2c1=O | 613 s
CC(C)(C)NC(=O)NCC(c1ccsc1)N1CCc2ccccc2C1 (centres undefined) | 593 s
Cc1cc(N2CCCC2)n2ncnc2n1 | 567 s
O=C(Cn1ccc2sccc2c1=O)Nc1ccc(Br)cc1F | 832 s
O=C1Nc2cc(C(=O)N3CCCCC3)ccc2N2CCCCC12 (centres undefined) | 762 s
O=C(Nc1ccccc1)C1CCCN(c2ccc3cc(S(=O)(=O)N4CCCC4)ccc3n2)C1 (centres undefined) | 773 s
Cc1ccccc1S(=O)(=O)N1CCC(CCC(=O)NC2CC2)CC1 | 791 s
COc1ccc(NC(=O)c2cc3c(s2)CN(C2CCCC2)C3)c(OC)c1 | 616 s
CCN1C(=O)c2cc(C(=O)NCc3ccccc3Cl)nn2CC1(C)C(=O)NC1CCCC1 (centres undefined) | 817 s
CCC(=O)N1CCc2cc(C(=O)NC3CC3)ccc21 | 650 s
O=C(CSc1ccc(-n2cccn2)nn1)NCc1ccco1 | 653 s
Cn1c(NC(=O)c2cccc([N+](=O)[O-])c2)c(-c2cccs2)c(=O)c2ccccc21 | 701 s
COc1cc(OC)cc(C(=O)N2CCC3(CC2)NC(=O)c2cc(C)ccc2N3C)c1 | 795 s
Cc1nnc(N2CCC(C(=O)N3CCN(C)CC3)CC2)c2nn(-c3ccccc3)c(C)c12 | 573 s

SMILES | RP-LC retention time
CC(C)CCNC(=O)N1CCC2(CC1)C(=O)N(C)c1ccccc12 | 813 s
Cc1ccsc1C(=O)N1CCC2(CC1)CC(OCC1CC1)CCO2 (centres undefined) | 851 s
CCC1Oc2ccc(S(=O)(=O)N3CCC(C(=O)Nc4cccc(Cl)c4C)CC3)cc2NC1=O (centres undefined) | 947 s
O=C(Nc1ccc(OCC(=O)N2CCN(c3cccc(Cl)c3)CC2)nc1)C1CC1 | 836 s
CC(C)Cc1ccc(S(=O)(=O)N2C[C@@H](F)C[C@H]2C(=O)N2CCc3ccccc3C2)cc1 | 1120 s
COCc1ccc(C(=O)Nc2nnc(C)s2)o1 | 595 s
CCOC(=O)c1c(C)[nH]c(C(=O)N2CCCC(C(=O)NCc3ccc(C)o3)C2)c1C (centres undefined) | 790 s
O=C1NC2(CCN(C(=O)c3ccccc3)CC2)N=C1c1ccc(Br)cc1 | 861 s
Cc1ccc(N2C(=O)CN(S(=O)(=O)c3ccccc3)CC2(C)C(=O)NC2CCCC2)cc1 (centres undefined) | 917 s
CCn1ccc(C(=O)N2CCCC2c2cccc(C)c2)n1 (centres undefined) | 890 s
COc1cc(NS(=O)(=O)c2cc3n(c2)CCN(C)C3=O)cc(OC)c1 | 671 s
O=C(Nc1ccc2c(c1)OCCO2)N1CCC(Cc2noc(C3CCOCC3)n2)C1 (centres undefined) | 698 s
CCc1cccc(C)c1NC(=O)Cn1c(=O)c(CCC(=O)NC2CCCC2)nc2ccccc21 | 844 s
CCc1noc(C2(NC(=O)c3ccccc3Cl)CCCCC2)n1 | 936 s
Cn1c(=O)c(N2CCC(NC(=O)Nc3ccc(Br)cc3)CC2)nc2ccccc21 | 977 s
COC[C@@H]1CN(c2cnccn2)C[C@H]1C(=O)NC(C)C | 572 s
COC(=O)CS(=O)c1ccc(C(F)(F)F)cc1[N+](=O)[O-] (centres undefined) | 730 s
Cc1ccccc1NC(=O)C1CCCN(C(=O)c2nn(C)c3c2CN(C(=O)C(C)(C)C)CC3)C1 (centres undefined) | 802 s
O=C(Cn1nc(N2CCSCC2)c2ccccc2c1=O)Nc1cccc(C(F)(F)F)c1 | 1030 s
O=S(=O)(c1ccc(F)cc1Cl)N1CCCn2nc(-c3cccnc3)cc2C1 | 687 s

Now from value to molecule:

RP-LC retention time | SMILES
890 s | CCCn1cc(S(=O)(=O)Nc2cc(F)ccc2F)c2cccnc21
1040 s | CCCOc1cccc2c1CCN(Cc1ccc(F)cc1)C2=O
627 s | Cc1ccc(NC(=O)N2CCN(c3cnn4cnnc4c3)CC2)cc1
584 s | Cc1ccc(NC(=O)N2CCN(CCn3cnc4cccnc43)CC2)c(Cl)c1
1040 s | Cc1csc(-n2nc(C)c(CC(=O)Nc3cccc(Cl)c3)c2C)n1
590 s | Cn1cnc2cc(OC(=O)c3c(F)cccc3F)ccc21
1110 s | Cc1ccc(-n2c(=O)c3sccc3n(Cc3nc(-c4ccc(Br)cc4)no3)c2=O)cc1
878 s | Cc1ccsc1C(=O)N1CCN(c2ccc(=O)n(-c3ccc(Cl)cc3)n2)CC1
759 s | CCc1ccc(NC(=O)Cn2cc(C(=O)N3CCCC3)c(=O)c3ccc(C)nc32)cc1
1110 s | Cc1ccc(S(=O)(=O)c2cnc(N3CCN(c4ccccc4)CC3)nc2N)cc1C
597 s | O=C(NCC1CCCO1)c1nc(-c2ccnc(N3CCCC3)c2)no1 (centres undefined)
671 s | Cc1cc(C)cc(NC(=O)N2CCCC(Cn3c(C)nc4cccnc43)C2)c1 (centres undefined)
578 s | COCc1nc(-c2ccc(OC3CNC3)cc2)no1
992 s | CC(C)CCNC(=O)C1(C)CN(S(=O)(=O)c2ccccc2)CC(=O)N1c1ccc(Cl)cc1 (centres undefined)
696 s | CN(C)c1nc2ncn3c(=O)n(CC(=O)Nc4ccc(F)c(F)c4)nc3c2s1
849 s | CCC(=O)N1CCc2cc(-c3ccc(C(=O)NCc4ccco4)cc3)ccc21
785 s | C=CCN1C(=O)COc2ccc(-c3csc(NC(=O)COC)n3)cc21
740 s | Cc1noc2nc(CCC(=O)NCc3ccc(Cl)cc3)nc(N3CCOCC3)c12
1220 s | Cc1ccc(-c2nnc(Cc3nc(-c4ccc(Cl)cc4)no3)o2)cc1C
1310 s | O=C(N1CC(Oc2ccc(-c3nc(-c4ccccc4)no3)cc2)C1)C1(c2ccccc2)CC1
661 s | COc1ccc(S(=O)(=O)Nc2ccc(-c3cn4ccc(C)nc4n3)cc2)cc1C
1340 s | Cc1ccc(C2CC(=O)c3cnc(N4CCN(c5ccccc5)CC4)nc3C2)cc1 (centres undefined)
748 s | Cc1ccc(-c2ncn(C3CCCCC3)c2-c2ccc(C(=O)N3CCN(c4ncccn4)CC3)o2)cc1
1020 s | O=c1n(Cc2ccc(Cl)cc2)nc2c(S(=O)(=O)N3CCc4ccccc4C3)cccn12

RP-LC retention time | SMILES
845 s | CCCn1cc(S(=O)(=O)Nc2cccc(C)c2)c2cccnc21
630 s | Cc1cccc(-c2noc(Cn3ccnc3)n2)c1
662 s | Clc1ccc(-c2cn3cccnc3n2)cc1
1020 s | CC(C)Cn1cc(S(=O)(=O)NCc2cccc(Cl)c2)c2cccnc21
957 s | COC(=O)c1ccccc1NC(=O)CSc1nnc2c3cc(-c4ccc(F)cc4)nn3ccn12
638 s | CN(C)C(=O)c1ccc2c(c1)nnn2CCNC(=O)Nc1ccccc1F
758 s | O=S(=O)(c1ccc(Cl)cc1)N1CCN(c2ccnc3cc(Cl)ccc23)CC1
872 s | CCOC(=O)c1cc(C)nc2c1c(=O)n(Cc1ccccc1C)c(=O)n2C
615 s | Nc1nc(Nc2ccccc2Cl)nc2ccccc12
1120 s | CCOC(=O)c1nc(N2CCN(c3cc(C)ccc3C)CC2)c2ccccc2n1
806 s | Cc1ccc(-c2cn3c(CC(=O)Nc4ccc5c(c4)OCCO5)csc3n2)cc1C
589 s | Clc1ccc(Cl)c(-c2ccc(CNCCCn3ccnc3)o2)c1
522 s | NCc1nnnn1-c1ccc(Cl)cc1
978 s | Cc1nn2c(CNS(=O)(=O)Cc3cccc(Cl)c3)c(-c3ccccc3)nc2s1
990 s | COc1cccc(N2C(=O)C3N=NN(Cc4nc(-c5ccc(C)cc5)no4)C3C2=O)c1 (centres undefined)
901 s | Cc1ccc(-c2nc3sc(N4CCCCC4)nn3c2NC(=O)C2CCCO2)cc1 (centres undefined)
671 s | COc1ccc2oc(-c3noc(C(=O)NCCCN4CCCC4)n3)c(C)c2c1
786 s | CC1(C)CC(=O)c2cn(-c3ccc(Cl)cc3)c(=O)c(C(=O)N3CCCC3)c2C1
633 s | COc1cc2nccc(Oc3ccc(NC(=O)NC4CC4)c(Cl)c3)c2cc1C(N)=O
623 s | Cc1ccc(CN2CCN(C(=O)C3CCc4nc(N5CCOCC5)ncc4C3)CC2)cc1C (centres undefined)
1200 s | Cc1ccc(C2c3[nH]c4ccccc4c3CCN2C(=O)C2CCC2)cc1 (centres undefined)
782 s | Cc1ccc(N2CCN(CC(O)COc3cccc(C)c3)CC2)cc1 (centres undefined)
930 s | CCCn1nnc2cc(-c3noc(C4CC(=O)N(c5ccccc5)C4)n3)ccc21 (centres undefined)
650 s | COc1ccc(C(CNC(=O)c2cc(=O)c3cc(Cl)ccc3o2)N(C)C)cc1 (centres undefined)
